This is an account of results in patent publication US20250326722A1 (SHANGHAI HANSOH BIOMEDICAL CO., LTD., priority 2022, published 2025).

For data set [1], the target named is PCSK9 secreted by HepG2 cells (Homo sapiens (Human), UniProt Q8NBP7). Description: Effect on the concentration of PCSK9 secreted by HepG2 cells (ELISA). It counts as cell-based. The note with it: 48 hours incubation, read-out: Inhibitory activity on PCSK9, IC50. The source says:
• 1. Experimental objective: To detect the inhibitory effect of the compounds on PCSK9. • 2. Experimental instruments and reagents: • 2.1 Instruments:
• CircuLex Human PCSK9 ELISA kit (MBL: CY-8079); • DMEM (Gibco: 31966-021) • FBS (Sigma: S5394) • Compound plate (Thermo: 1353506) • Complete culture medium: DMEM+10% FBS+1×P/S; • Experimental culture medium: DMEM+10% FBS • Cell strain: HepG2 (ATCC: HB-8065)
A self-adhesive seal was applied, the plate was placed on a plate shaker at room temperature, gently shaken, uniformly mixed, and incubated for 1 hour. • 11) The plate was placed on the plate washer, the washing liquid was set to 350 μL per well, and the plate was washed 4 times repeatedly. • 12) 100 μL/well of an HRP-conjugated detection antibody was added, a self-adhesive seal was applied, and the plate was placed on the plate shaker, well mixed uniformly, and incubated for 1 hour. • 13) The plate was placed on the plate washer, the washing liquid was set to 350 μL per well, and the plate was washed 4 times repeatedly. • 14) 100 μL/well of Substrate reagent was added, and the plate was placed in the dark, applied with a self-adhesive seal, placed on the plate shaker, well mixed uniformly, and incubated for 10-20 minutes. • 15) 100 μL/well of Stop solution (1N H2SO4) was added and mixed uniformly. • 16) The optical density (OD) value in each well was measured in sequence at a wavelength of 450 nm by the microplate reader. Detection was carried out within 30 min after the reaction was stopped.
After the OD values were read by the microplate reader, the OD value of the 0-concentration standard in the standard group was subtracted from the OD values of the standards, control group, and samples to obtain the actual OD values for these wells. A standard curve was plotted with Graphpad and the concentration of the sample was calculated. If the dilution was performed during the sample detection, the calculated sample concentration was necessarily multiplied by the corresponding dilution ratio in the final calculation, which was the actual concentration of the sample. Inhibition rate=(actual concentration in control-actual concentration in sample)/actual concentration in control*100. According to the inhibition rates corresponding to the different concentrations, IC50 was derived by Graphpad.

The nature of data set [2]: Pharmacokinetic determination in mice (plasma). The note with it: C57 mice, PO administration, 5 mpk; for AUC(0-inf) / half-life / MRT / Cmax: male, C57BL/6J, mouse, 5 mg/kg; for AUC(0-inf): read-out: Area under the curve AUC0-∞; for half-life: read-out: Half-life t1/2 (converted); for MRT: read-out: Mean residence time MRT; for Cmax: read-out: Plasma concentration Cmax. The data set is classed as in vivo, C57BL/6J mice. The procedure:
C57BL/6J mice were used as test animals to study the pharmacokinetic behavior of the compounds of the present disclosure in mice (plasma) after oral and intravenous administration.
C57 mice, male, purchased from Shanghai Bk Lab Animal Co., Ltd., with animal production license number (SCXK (Shanghai) 2013-0006 NO.311620400001794).
• Preparation of oral drug: 10% Solutol HS15
10 g of Solutol HS15 solid was weighed, dissolved in 90 mL of pure water, uniformly mixed, stirred, and ultrasonically treated to form a clear solution.
The compound of the present disclosure was weighed and dissolved in this solution, uniformly shaken, and ultrasonically treated for 15 minutes to obtain a colorless clear solution with a concentration of 0.5 mg/mL. • Preparation of intravenous drug: 5% DMSO+10% Solutol HS15+85% PBS […]
3 male C57 mice were fasted overnight and then respectively administered PO at a dose of 5 mg/kg and a volume of 10 mL/kg. […]
Before and after administration of mice, 0.04 mL of blood was collected from the orbit at 0.083 (iv), 0.25, 0.5, 1, 2, 4, 8, and 24 hours, and placed in EDTA-K2 test tubes, which was centrifuged at 6000 rpm at 4° C. for 6 min to separate plasma which was stored at −80° C.; and the […] were fed 4 h after administration.
The final determination results were obtained by using an LCMS/MS method.
The main pharmacokinetic parameters were calculated using WinNonlin 6.1.

The target in data set [3] is PCSK9 protein (Homo sapiens (Human), UniProt Q8NBP7). Description: Binding experiment: surface plasmon resonance (SPR) binding to PCSK9 protein. The source says:
• 1. Experimental objective: To detect the action of compounds to bind PCSK9 protein by a conventional surface plasmon resonance (SPR) method.

Each structure is given as a SMILES string.

PCSK9 protein, sequence (Q8NBP7 153-692): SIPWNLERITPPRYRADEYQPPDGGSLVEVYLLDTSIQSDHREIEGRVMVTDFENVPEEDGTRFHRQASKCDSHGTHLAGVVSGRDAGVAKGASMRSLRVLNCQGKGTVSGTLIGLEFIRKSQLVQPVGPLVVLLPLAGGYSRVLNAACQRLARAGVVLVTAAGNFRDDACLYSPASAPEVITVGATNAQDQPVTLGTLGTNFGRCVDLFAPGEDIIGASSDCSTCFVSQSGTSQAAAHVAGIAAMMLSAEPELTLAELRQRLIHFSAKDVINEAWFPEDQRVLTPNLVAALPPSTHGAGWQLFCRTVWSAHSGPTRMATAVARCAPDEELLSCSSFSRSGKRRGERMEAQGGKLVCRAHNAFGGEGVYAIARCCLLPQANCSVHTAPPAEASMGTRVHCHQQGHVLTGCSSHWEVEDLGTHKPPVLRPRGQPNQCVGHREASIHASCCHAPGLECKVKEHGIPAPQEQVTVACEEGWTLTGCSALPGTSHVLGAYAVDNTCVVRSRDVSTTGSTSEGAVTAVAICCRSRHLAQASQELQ
PCSK9 secreted by HepG2 cells, sequence (Q8NBP7 153-692): as above
PCSK9 secreted by HepG2 cells, sequence (Q8NBP7 31-152 partner): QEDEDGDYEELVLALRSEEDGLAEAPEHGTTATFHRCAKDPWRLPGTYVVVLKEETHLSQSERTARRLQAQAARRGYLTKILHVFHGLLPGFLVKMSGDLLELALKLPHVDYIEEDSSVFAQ

For the compound `O=C1c2cc(C(F)(F)F)ncc2CN1c1ccc(N[C@H]2CC[C@H](Nc3ncc(C(F)(F)F)nn3)C2)nc1` [Example 152, 6-(Trifluoromethyl)-2-(6-(((1S,3S)-3-((6-(trifluoromethyl)-1,2,4-triazin-3-yl)amino)cyclopentyl)amino)pyridin-3-yl)-2,3-dihydro-1H-pyrrolo[3,4-c]pyridin-1-one], in data set [1], the IC50 was found to be 1.5 µM. In data set [2], the Time to peak tmax amounted to 2 h, the AUC(0-inf) amounted to 65.5 µg·h/mL, the half-life is 9.6 h and the mean residence time MRT was found to be 12.1 h. In addition, in data set [2], the Cmax amounted to 5.29 µg/mL.
With `CC1(C)c2cccnc2C(=O)N1c1ccc(N[C@H]2CC[C@H](Nc3ncc(C(F)(F)F)nn3)C2)nc1` [Example 146, 5,5-Dimethyl-6-(6-(((1S,3S)-3-((6-(trifluoromethyl)-1,2,4-triazin-3-yl)amino)cyclopentyl)amino)pyridin-3-yl)-5,6-dihydro-7H-pyrrolo[3,4-b]pyridin-7-one], the equilibrium dissociation constant (Kd) in data set [3] worked out at 0.0025 µM.
In data set [3], `O=C1c2cccc(C(F)(F)F)c2CN1c1ccc(N[C@H]2CC[C@H](Nc3nc4cc(F)ccn4n3)C2)nc1` [Example 162] returned a dissociation constant (Kd) of 0.003 µM. For the same compound, the IC50 in data set [1] is 22.8 µM.
In data set [3], `Cc1ccn2nc(N[C@H]3CC[C@H](Nc4ccc(N5Cc6cccnc6C5=O)cn4)C3)nc2c1` [Example 130, 6-(6-(((1S,3S)-3-((7-methyl-[1,2,4]triazolo[1,5-a]pyridin-2-yl)amino)cyclopentyl)amino)pyridin-3-yl)-5,6-dihydro-7H-pyrrolo[3,4-b]pyridin-7-one] yielded a Kd of 0.0012 µM. In addition, in data set [1], the IC50 came to 9.9 µM.
On the same counts, the results for `O=C1c2ncccc2CN1c1ccc(N[C@H]2CC[C@H](Nc3ncc(C4CC4)cn3)C2)nc1` [Example 127] are 0.0018 µM and 11.8 µM.
For the compound `O=c1ccccn1-c1ccc(N[C@H]2CC[C@H](Nc3nc4cc(C5CC5)ccn4n3)C2)nc1` [Example 135, 6′-(((1S,3S)-3-((7-cyclopropyl-[1,2,4]triazolo[1,5-a]pyridin-2-yl)amino)cyclopentyl)amino)-2H-[1,3′-bipyridinyl]-2-one], the dissociation constant Kd in data set [3] was 0.0049 µM. Also, the IC50 in data set [1] stood at 22.3 µM.
On to `Cc1cc2c(cn1)CN(c1ccc(N[C@H]3CC[C@H](Nc4ncc(OC(F)F)cn4)C3)nc1)C2=O` [Example 116, 2-(6-(((1S,3S)-3-((5-(difluoromethoxy)pyrimidin-2-yl)amino)cyclopentyl)amino)-3-yl)-6-methyl-2,3-dihydro-1H-pyrrolo[3,4-c]pyridin-1-one], for which the concentration for half-maximal inhibition (IC50) in data set [1] stood at 2.6 µM. Also, in data set [2], the Time to peak tmax amounted to 1 h, the AUC(0-inf) came out at 42.5 µg·h/mL, the half-life is 5.1 h and the MRT is 7.2 h. Further, the Cmax in data set [2] came to 4.06 µg/mL.
Turning to `O=C1c2cccnc2CN1c1ccc(N[C@H]2CC[C@H](Nc3ncc(OCC(F)(F)F)cn3)C2)nc1` [Example 124], the Kd in data set [3] is 0.0008 µM. The IC50 in data set [1] stood at 16.8 µM.
As to `O=C1c2ncccc2CN1c1ccc(N[C@H]2CC[C@H](Nc3ncc(OCC(F)(F)F)cn3)C2)nc1` [Example 125], in data set [1], the IC50 was found to be 17.3 µM. In data set [2], the “Area under the curve AUC0-∞” value amounted to 24.298 µg·h/mL, the “Half-life t1/2” value was 7.7 h, the “Mean residence time MRT” value is 4.0 h and the “Plasma concentration Cmax” value turned out to be 8.545 µg/mL. The same compound returned a Time to peak tmax in data set [2] of 1 h.
On to `O=c1ccccn1-c1ccc(N[C@H]2CC[C@H](Nc3nc4cc(C(F)(F)F)ccn4n3)C2)nc1` [Example 113, 6′-(((1S,3S)-3-((7-(trifluoromethyl)-[1,2,4]triazolo[1,5-a]pyridin-2-yl)amino)cyclopentyl)amino)-2H-[1,3′-bipyridinyl]-2-one], for which binding in data set [3] was characterised by a dissociation constant (Kd) of 0.0042 µM. In addition, the concentration for half-maximal inhibition (IC50) in data set [1] is 14 µM.
For the compound `O=c1ccccn1-c1ccc(N[C@H]2CC[C@H](Nc3nc4cc(Cl)ccn4n3)C2)nc1` [Example 112, 6′-(((1S,3S)-3-((7-chloro-[1,2,4]triazolo[1,5-a]pyridin-2-yl)amino)cyclopentyl)amino)-2H-[1,3′-bipyridinyl]-2-one], the Kd in data set [3] was determined as 0.0027 µM.
Take `O=C1c2cccnc2CN1c1ccc(N[C@H]2CC[C@H](Nc3ncc(C(F)(F)F)cn3)C2)nc1` [Example 133, 6-(6-(((1S,3S)-3-((5-(trifluoromethyl)pyrimidin-2-yl)amino)cyclopentyl)amino)-3-yl)-6,7-dihydro-5H-pyrrolo[3,4-b]pyridin-5-one]: the IC50 in data set [1] amounted to 1.1 µM. Also, in data set [2], the Time to peak tmax worked out at 0.25 h, the AUC(0-inf) came out at 36.8 µg·h/mL, the half-life is 6.7 h and the MRT was 6.2 h. In addition, the Cmax in data set [2] was determined as 7.53 µg/mL.
With `O=C1c2ncccc2CN1c1ccc(N[C@H]2CC[C@H](Nc3ncc(C4CC4)nn3)C2)nc1` [Example 126, 6-(6-(((1S,3S)-3-((6-cyclopropyl-1,2,4-triazin-3-yl)amino)cyclopentyl)amino)pyridin-3-yl)-5,6-dihydro-7H-pyrrolo[3,4-b]pyridin-7-one], the Kd in data set [3] turned out to be 0.0012 µM. Further, the IC50 in data set [1] turned out to be 0.5 µM.
With `O=C1c2ncc(F)cc2CN1c1ccc(N[C@H]2CC[C@H](Nc3ncc(C(F)(F)F)nn3)C2)nc1` [Example 153, 3-Fluoro-6-(6-(((1S,3S)-3-((6-(trifluoromethyl)-1,2,4-triazin-3-yl)amino)cyclopentyl)amino)pyridin-3-yl)-5,6-dihydro-7H-pyrrolo[3,4-b]pyridin-7-one], the IC50 in data set [1] is 26.4 µM. Further, in data set [2], the Time to peak tmax amounted to 2 h, the AUC(0-inf) was 34.6 µg·h/mL, the half-life is 2.9 h and the mean residence time (MRT) turned out to be 4.4 h. Further, in data set [2], the Cmax was found to be 6.31 µg/mL.
Consider `O=C1c2ncccc2CN1c1ccc(N[C@H]2CC[C@H](Nc3ncc(OC(F)(F)F)cn3)C2)nc1` [Example 142, 6-(6-(((1S,3S)-3-((5-(trifluoromethoxy)pyrimidin-2-yl)amino)cyclopentyl)amino)pyridin-3-yl)-5,6-dihydro-7H-pyrrolo[3,4-b]pyridin-7-one], for which, in data set [1], the IC50 was 2.4 µM. Also, in data set [2], the Time to peak tmax is 2 h, the AUC(0-inf) is 50.8 µg·h/mL, the half-life is 6.5 h and the MRT came out at 8.1 h. Besides, the Cmax in data set [2] was 5.93 µg/mL.
Regarding `CC1(C)c2cccnc2C(=O)N1c1ccc(N[C@H]2CC[C@H](Nc3ncc(OC(F)F)cn3)C2)nc1` [Example 93, 6-(6-(((1S,3S)-3-((5-(difluoromethoxy)pyrimidin-2-yl)amino)cyclopentyl)amino)pyridin-3-yl)-5,5-dimethyl-5,6-dihydro-7H-pyrrolo[3,4-b]pyridin-7-one], in data set [3], binding was put at a Kd of 0.0029 µM.
On to `O=C1c2cccnc2CN1c1ccc(N[C@H]2CC[C@H](Nc3ncc(C4CC4)cn3)C2)nc1` [Example 128], for which the half-maximal inhibitory concentration (IC50) in data set [1] was 7.9 µM. Besides, in data set [2], the “Area under the curve AUC0-∞” value was determined as 10.873 µg·h/mL, the “Half-life t1/2” value is given as 4.0 h, the “Mean residence time MRT” value came to 3.7 h and the “Plasma concentration Cmax” value came out at 4.307 µg/mL. The compound further had a Time to peak tmax in data set [2] of 0.5 h.
